We go through eleven compounds from US11279695B2, “Andrographolide compound and method for treatment or prevention of fibrotic disease using the same” (Zhengzhou University, priority 2018, dated 2022).

For series [1], the system named is hepatic fibrosis in KM mice induced by bile duct ligation (BDL). Kind of series: Hepatic fibrosis in KM mice induced by bile duct ligation (BDL). Particulars: 10 days, scale 0-6. It is filed as in vivo. The procedure:
SPF grade KM mice, healthy, male, with a body weight of 20±2 g, were purchased from Henan Experimental Animal Center. (License No. SOCK (Yu) 2017-0001).
After KM mice were fed ad libitum for 3 days, they were randomly divided into multiple groups including a sham-operated control group, a model group, an AD control group, and different compound-administered groups, six mice per group. The sham operation group and the model group were administered with 0.5% Sodium CMC (Na CMC) via gavage, and the other administration groups were administered 0.5% CMC-Na suspension of the corresponding drug, and the administration lasted for 10 days. Mice should be strictly fasting with nothing but water 12 hours prior to surgery. The mice were anesthesia by intraperitoneally injecting with 0.5% sodium pentobarbital. After limb immobilization in a supine position, the anesthetized mice were prepared. The abdomen of the mice was shaved and then swabbed with iodine to sterilize the skin regions. After spreading of surgery cloth, the abdomen was opened along the abdominal wall in the midline. The duodenum was found along the stomach, then pull upwards to just separate from the common bile duct. Double-ligated with 4/0 silk thread and disconnected the common bile duct with a distance of 0.5 cm away from the hepatic hilum. Following the examination for no bleeding and bile leakage, the 3/0 silk thread continuous suture method was used to close the abdomen layer by layer. The wound was swabbed with iodine, and the mice rest in a 37° C. warm environment until the animals were fully awake. […] Drugs were administrated by gavage on an empty stomach in the morning every day, and were given daily for 10 days. The liver was quickly excised after blood collection. The collected blood was allowed to stand in an incubator 37° C. for 45 min, and then the upper serum was collected by centrifugation at 3500 rpm for 15 min at 4° C. The liver of the lower left lobe of the mice was fixed in 10 times volume of 4% paraformaldehyde fixative, and the fixative was changed after 24 h. Pathological sections were obtained after fixation. Each section was stained with hematoxylin-eosin stain (HE) and Sirius red to observe fibrosis levels and pathological change in the liver. […] Collagen deposition was measured with Sirius red staining, and positive expression was semi-quantitatively analyzed by Image-Pro Plus. […]

The test system of series [2] is silica-induced pulmonary fibrosis in KM mice. As to the kind of experiment: Silica-induced pulmonary fibrosis in KM mice. It counts as in vivo. Particulars: AD at equivalent dose (40 or 120 mg/kg) ig 21 days. The procedure: SPF grade KM mice, healthy, male, with a body weight of 20±2 g, were purchased from Henan Experimental Animal Center. (License No. SOCK (Yu) 2017-0001). Silica was heated at 250° C. for 1 hour to remove endotoxin. After autoclaving the heated silica was suspended in physiological saline to yield a final concentration of 75 mg/mL suspension, and stored at 4° C. for use. The suspension was shaken and sonicated for 30 minutes prior to injection.
After mice were fed ad libitum for 3 days, they were randomly divided into six groups including a sham-operated control group, a model group, different groups of the compounds of the disclosure, eight mice per group. The mice were anesthetized with intraperitoneal injection of 0.5% sodium pentobarbital (50 mg/kg). After the immobilization in a supine position, the anesthetized mice were prepared. The neck of the mice was shaved and then swabbed with iodine to sterilize the skin regions. An incision with a length of about 1 cm was made along the neck for separating bronchus. A silica suspension proportional (150 mg/kg) to the body weight, and 100 μL of air was immediately injected into the trachea through the cartilage space of mice. After the muscle was reset, the mice were quickly rotated for 2 minutes to evenly distribute the silica. […] Mice lung was collected, weighed and the pulmonary lesion was measured. […]

For series [3], the system named is human renal proximal tubule epithelial cells HK-2. Kind of series: In vitro cytotoxicity MTT assay on HK-2 cells. It counts as cell-based. Particulars: 48 h, 30.00 μM equivalent dose, FIGS. 6A-6B. The procedure: HK-2 cells were cultured in a DMEM/F12 medium containing 10% (V/V) fetal bovine serum (FBS), 100 μg/mL streptomycin, and 100 IU/mL penicillin, followed by incubation at 37° C. in a humidified atmosphere with 5% CO2.
HK-2 cells in the logarithmic growth phase were digested with 0.25% (W/V) trypsin and 0.02% EDTA (W/V), diluted into 7.0×10^4 cell/mL cell suspension with DMEM/F12 medium containing 10% (V/V) FBS, and transferred into a 96-well plate for 200 μL per well. After incubation in the 37° C. incubator with 5% CO2 for 24 hours, the medium comprising different concentration of test compounds were added into the wells. Under these conditions, the maximum final drug concentration in the assay was 30.00 μM. The experiment was performed in triplicate. After further incubation for 48 hours, other steps were the same as Example 1.
In general terms: Tetrazolium dyes change colour on reduction, which living cells bring about.

Setting [4] is: 15 mg/kg ig, model group mean score 4.25.

As to `C=C1CC[C@@H]2[C@](C)(CO)[C@H](O)CC[C@@]2(C)[C@@H]1C/C=C1/C(=O)OC[C@H]1O` [AD, andrographolide], the “fibrosis pathological score for liver tissue section (mean)” value (“fibrosis pathological score” for short) is given as 2.83 in series [1] (15 mg/kg ig, model group mean score 4.8) and 2.10 in series [1] (40 mg/kg ig, model group mean score 4.8). The pulmonary fibrosis score in series [2] is listed as 3.8-4.9. The “inhibitory effect on proliferation of HK-2 cells compared with AD” value (“inhibitory effect … compared with AD” below) in series [3] is recorded as “lower inhibitory activity against the cell proliferation”.
`CC1=CCC2C(C)(CO)C(O)CCC2(C)C1C=CC1=CC(=Cc2ccc(F)cc2)OC1=O` (centres unmarked) [ADC-5]: the “inhibitory effect … compared with AD” value in series [3] is “higher inhibitory effect on proliferation of HK-2 cells than the parent compound AD”.
For the compound `CC1=CCC2C(C)(CO)C(O)CCC2(C)C1C=CC1=CC(=Cc2ccc(F)c(F)c2)OC1=O` (centres unmarked) [ADC-6], the “inhibitory effect … compared with AD” value in series [3] is “higher inhibitory effect on proliferation of HK-2 cells than the parent compound AD”.
Same read-out and setting: the same measure for `COc1ccc(C=C2C=C(C=CC3C(C)=CCC4C(C)(CO)C(O)CCC34C)C(=O)O2)cc1` (centres unmarked) [ADC-11]: “higher inhibitory effect on proliferation of HK-2 cells than the parent compound AD”; for `CC1=CCC2C(C)(CO)C(O)CCC2(C)C1C=CC1=CC(=Cc2ccccc2O)OC1=O` (centres unmarked) [ADC-12]: “higher inhibitory effect on proliferation of HK-2 cells than the parent compound AD”; for `CC12CCC3C(CCC(O)C3(C)CO)C1CC(C1=CC(=Cc3ccc(Br)cc3)OC1=O)O2` (centres unmarked) [ADY-2]: “higher inhibitory effect on proliferation of HK-2 cells than the parent compound AD”.
Same read-out and setting: the same measure for `CC12CCC3C(CCC(O)C3(C)CO)C1CC(C1=CC(=Cc3ccccc3)OC1=O)O2` (centres unmarked) [ADY-5]: “higher inhibitory effect on proliferation of HK-2 cells than the parent compound AD”; for `CC12CCC3C(CCC(O)C3(C)CO)C1CC(C1=CC(=Cc3ccc(F)c(F)c3)OC1=O)O2` (centres unmarked) [ADY-6]: “higher inhibitory effect on proliferation of HK-2 cells than the parent compound AD”.
Turning to `COc1cccc(C=C2C=C(C3CC4C5CCC(O)C(C)(CO)C5CCC4(C)O3)C(=O)O2)c1` (centres unmarked) [ADY-7], the “fibrosis pathological score” value in series [1] (setting [4]) came to 0.4.
As for `CC12CCC3C(CCC(O)C3(C)CO)C1CC(C1=CC(=Cc3ccc(O)cc3)OC1=O)O2` (centres unmarked) [ADY-8], in series [3], the “inhibitory effect … compared with AD” value was “higher inhibitory effect on proliferation of HK-2 cells than the parent compound AD”.
On to `COc1ccc(C=C2C=C(C3CC4C5CCC(O)C(C)(CO)C5CCC4(C)O3)C(=O)O2)cc1` (centres unmarked) [ADY-12], for which the “fibrosis pathological score” value in series [1] (setting [4]) was 1.4.
